Results published in patent publication US8822517B2, “Arylosulfonamides for the treatment of CNS diseases” (Adamed SP. Z O.O., priority 2010, dated 2014).
Where two headings read alike, the source gives them in different places.

What was measured:
sigma σ receptor = test: Binding assay σ (non-selective), [3H]DTG, rat cerebral cortex; conditions: percent inhibition of control specific binding; compounds tested at 1×10^−6 M
Method in brief: (§1)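 Specific ligand binding was taken as total minus non-specific binding, with the latter defined in the presence of surplus unlabelled ligand. Each compound was tested at a single 1×10^−6 M concentration.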

adrenergic α1 receptor = test: Binding assay α1 (non-selective), [3H]prazosin, rat cerebral cortex; conditions: percent inhibition of control specific binding; compounds tested at 1×10^−6 M
Method in brief: as §1

muscarinic M3 receptor = target: T1, muscarinic M3 receptor (Homo sapiens, UniProt P20309); test: Binding assay M3 (h), [3H]4-DAMP, CHO cells; conditions: read-out: M3 [%]
T1 construct: expressed in transfected cells; host or cells: CHO cells
T1 sequence (P20309 whole entry): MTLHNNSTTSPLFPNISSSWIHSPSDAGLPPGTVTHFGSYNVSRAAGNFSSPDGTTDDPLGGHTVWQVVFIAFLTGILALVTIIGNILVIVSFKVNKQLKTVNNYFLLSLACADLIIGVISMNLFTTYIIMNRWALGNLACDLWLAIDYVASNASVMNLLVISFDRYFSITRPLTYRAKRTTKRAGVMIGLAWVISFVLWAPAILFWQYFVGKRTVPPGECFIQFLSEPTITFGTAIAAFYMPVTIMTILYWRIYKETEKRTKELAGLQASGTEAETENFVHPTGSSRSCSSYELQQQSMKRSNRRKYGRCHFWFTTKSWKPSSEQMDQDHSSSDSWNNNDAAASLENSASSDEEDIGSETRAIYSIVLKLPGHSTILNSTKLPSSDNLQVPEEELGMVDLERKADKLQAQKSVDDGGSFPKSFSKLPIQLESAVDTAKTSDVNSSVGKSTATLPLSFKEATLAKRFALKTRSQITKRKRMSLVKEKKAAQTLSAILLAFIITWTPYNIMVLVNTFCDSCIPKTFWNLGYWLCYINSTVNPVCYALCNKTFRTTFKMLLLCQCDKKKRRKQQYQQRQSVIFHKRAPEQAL
Method in brief: as §1

[1] = target: T2, serotoninergic receptor 5-HT2C (Homo sapiens, UniProt P28335); test: Binding assay 5-HT2C (h), [3H]mesulergine, HEK-293 cells; conditions: read-out: 5-HT2C [%]
T2 construct: expressed in transfected cells; host or cells: HEK-293 cells
T2 sequence (P28335 33-458): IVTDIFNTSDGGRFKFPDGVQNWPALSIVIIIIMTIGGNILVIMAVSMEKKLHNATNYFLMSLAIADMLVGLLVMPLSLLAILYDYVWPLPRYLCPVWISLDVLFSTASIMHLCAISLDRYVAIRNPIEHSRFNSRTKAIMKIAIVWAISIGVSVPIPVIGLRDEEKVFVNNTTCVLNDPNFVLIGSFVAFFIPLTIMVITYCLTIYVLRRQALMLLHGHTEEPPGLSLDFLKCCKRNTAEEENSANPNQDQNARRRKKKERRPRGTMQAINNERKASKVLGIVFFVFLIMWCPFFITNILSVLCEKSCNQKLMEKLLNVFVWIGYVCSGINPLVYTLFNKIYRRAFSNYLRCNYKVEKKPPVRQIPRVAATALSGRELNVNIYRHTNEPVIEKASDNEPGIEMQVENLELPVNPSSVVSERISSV
Method in brief: as §1

[2] = target: T3, serotoninergic 5-HT2A receptor (Homo sapiens, UniProt P28223); test: Cellular functional assay, serotoninergic 5-HT2A receptor (agonism/antagonism); assay type: cell-based; conditions: for activation at 1 µM: read-out: 5-HT2A -ag [%]; for inhibition at 1 µM: read-out: 5-HT2A -antag [%]
T3 sequence (P28223 whole entry): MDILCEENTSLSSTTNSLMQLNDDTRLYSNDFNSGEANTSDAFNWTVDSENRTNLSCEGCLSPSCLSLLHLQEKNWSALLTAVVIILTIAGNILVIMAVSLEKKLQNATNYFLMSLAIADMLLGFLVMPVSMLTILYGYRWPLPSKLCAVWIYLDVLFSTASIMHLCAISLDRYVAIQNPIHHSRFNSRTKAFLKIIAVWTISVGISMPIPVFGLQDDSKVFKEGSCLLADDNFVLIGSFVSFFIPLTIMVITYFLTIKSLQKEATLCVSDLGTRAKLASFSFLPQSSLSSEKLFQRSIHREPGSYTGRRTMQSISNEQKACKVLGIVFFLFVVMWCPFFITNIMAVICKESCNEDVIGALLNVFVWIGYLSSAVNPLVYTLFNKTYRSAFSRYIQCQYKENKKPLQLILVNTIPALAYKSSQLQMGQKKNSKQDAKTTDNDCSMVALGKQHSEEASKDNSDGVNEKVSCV
Experimental: […]. The compounds were tested at the concentration of 1×10^−6M.
Conditions and methodology (by reference to the literature) of cellular functional assays are given in Table 13 and the tests results for representative compounds are given in Table 14 (dopaminergic receptor D2), in Table 15 (dopaminergic receptor D3), in Table 16 (serotoninergic receptor 5-HT1A), in Table 17 (serotoninergic receptor 5-HT2A), in Table 18 (serotoninergic receptor 5-HT6), in Table 19 (serotoninergic receptor 5-HT7), in Table 20 (adrenergic α1 receptor), in Table 21 (adrenergic α2C receptor), in Table 22 (histaminergic H1 receptor) and in Table 23 (serotoninergic 5-HT2C receptor). In the Tables ag refers to agonism, and antag to antagonism).

[3] = target: T4, serotoninergic 5-HT6 receptor (Homo sapiens, UniProt P50406); test: Cellular functional assay, serotoninergic 5-HT6 receptor (agonism/antagonism); assay type: cell-based; conditions: for activation at 1 µM: agonist effect, percent of control specific agonist response, compounds tested at 1×10^−6M, read-out: 5-HT6-ag [%]; for inhibition at 1 µM: read-out: 5-HT6-antag. [%]
T4 sequence (P50406 whole entry): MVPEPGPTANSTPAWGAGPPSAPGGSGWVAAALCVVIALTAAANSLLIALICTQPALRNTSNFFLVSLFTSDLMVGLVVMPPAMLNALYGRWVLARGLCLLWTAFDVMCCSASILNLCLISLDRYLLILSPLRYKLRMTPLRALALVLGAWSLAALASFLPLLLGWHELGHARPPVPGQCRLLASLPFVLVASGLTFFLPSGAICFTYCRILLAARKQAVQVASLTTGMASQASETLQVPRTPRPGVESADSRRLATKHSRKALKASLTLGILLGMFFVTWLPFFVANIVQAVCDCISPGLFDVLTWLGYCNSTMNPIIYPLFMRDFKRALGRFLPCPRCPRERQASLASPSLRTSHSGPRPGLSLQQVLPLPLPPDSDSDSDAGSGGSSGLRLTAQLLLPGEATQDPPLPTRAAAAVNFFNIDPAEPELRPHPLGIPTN
Experimental: (§2) The compounds were tested at the concentration of 1×10^−6M.
(§3) In the Tables ag refers to agonism, and antag to antagonism).

[4] = target: T5, serotoninergic 5-HT7 receptor (Homo sapiens, UniProt P34969); test: Cellular functional assay, serotoninergic 5-HT7 receptor (agonism/antagonism); assay type: cell-based; conditions: for activation at 1 µM: read-out: 5-HT7-ag [%]; for inhibition at 1 µM: read-out: 5-HT7-antag. [%]
T5 sequence (P34969 whole entry): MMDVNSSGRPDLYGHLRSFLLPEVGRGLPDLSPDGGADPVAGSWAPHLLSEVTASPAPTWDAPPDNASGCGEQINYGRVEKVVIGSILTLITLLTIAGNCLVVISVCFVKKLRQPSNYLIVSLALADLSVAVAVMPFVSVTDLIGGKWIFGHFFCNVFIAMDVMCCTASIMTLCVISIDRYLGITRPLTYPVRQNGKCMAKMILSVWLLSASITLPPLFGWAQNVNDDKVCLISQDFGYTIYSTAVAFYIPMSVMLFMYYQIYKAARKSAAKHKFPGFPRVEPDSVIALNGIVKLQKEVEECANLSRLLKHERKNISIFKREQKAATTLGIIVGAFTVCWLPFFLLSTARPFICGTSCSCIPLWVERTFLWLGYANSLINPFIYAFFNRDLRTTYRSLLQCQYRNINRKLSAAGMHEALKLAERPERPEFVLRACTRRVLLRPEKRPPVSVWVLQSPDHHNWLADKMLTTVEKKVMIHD
Experimental: as §2, §3

[5] = target: T4, serotoninergic 5-HT6 receptor; test: Binding assay 5-HT6 (h), [3H]LSD, CHO cells; parameters: expressed in transfected cells; host or cells: CHO cells; conditions: read-out: 5-HT6
Method in brief: as §1

[6] = target: T5, serotoninergic 5-HT7 receptor; test: Binding assay 5-HT7 (h), [3H]LSD, CHO cells; parameters: expressed in transfected cells; host or cells: CHO cells; conditions: read-out: 5-HT7
Method in brief: as §1

dopaminergic D2 receptor = dopaminergic D2 receptor (Homo sapiens, UniProt P14416); test: Binding assay D2S (h), [3H]methyl-spiperone, HEK-293 cells; parameters: expressed in transfected cells; host or cells: HEK-293 cells; conditions: read-out: D2 [%]
dopaminergic D2 receptor, sequence (P14416 1-414 isoform P14416-2): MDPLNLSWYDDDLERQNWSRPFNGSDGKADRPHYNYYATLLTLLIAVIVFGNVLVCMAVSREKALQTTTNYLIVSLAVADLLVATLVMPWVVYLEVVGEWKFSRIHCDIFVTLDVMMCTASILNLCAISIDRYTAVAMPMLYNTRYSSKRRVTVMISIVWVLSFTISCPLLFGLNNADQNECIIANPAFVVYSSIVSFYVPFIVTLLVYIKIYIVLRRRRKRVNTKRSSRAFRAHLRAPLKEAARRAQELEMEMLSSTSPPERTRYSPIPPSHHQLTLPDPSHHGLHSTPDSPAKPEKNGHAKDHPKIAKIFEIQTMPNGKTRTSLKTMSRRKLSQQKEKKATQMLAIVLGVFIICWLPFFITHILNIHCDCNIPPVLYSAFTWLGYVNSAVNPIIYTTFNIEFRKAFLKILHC
Method in brief: as §1

[7] = target: T3, serotoninergic 5-HT2A receptor; test: Binding assay 5-HT2A (h), [3H]ketanserin, HEK-293 cells; parameters: expressed in transfected cells; host or cells: HEK-293 cells; conditions: read-out: 5-HT2A
Method in brief: as §1

[8] = agonist effect, percent of control specific agonist response, compounds tested at 1×10^−6M

SMILES | σ [%] (sigma σ receptor) | α1 [%] (adrenergic α1 receptor) | inhibition at 1 µM (muscarinic M3 receptor) | inhibition at 1 µM [1] | activation at 1 µM [2] | inhibition at 1 µM [2] | activation at 1 µM [3] | inhibition at 1 µM [3] | activation at 1 µM [4, 8] | inhibition at 1 µM [4] | inhibition at 1 µM [5] | inhibition at 1 µM [6] | inhibition at 1 µM (dopaminergic D2 receptor) | inhibition at 1 µM [7] | activation at 1 µM [4]
O=S(=O)(NCCCCN1CCN(c2nsc3ccccc23)CC1)c1cccc2ccccc12 [Compound 1, N-(4-(4-(1,2-Benzothiazol-3-yl)piperazin-1-yl)butyl)naphthalene-1-sulphonamide] | 54% | 99% | 13% | 80% | 0% | 99% | 1% | 39% | -1% | 97% | 95% | 96% | 97% | 99% | –
Cc1cccc(S(=O)(=O)NCCCCN2CCN(c3nsc4ccccc34)CC2)c1 [Compound 3, N-(4-(4-(1,2-Benzothiazol-3-yl)piperazin-1-yl)butyl)-3-methylbenzenesulphonamide] | 66% | 100% | 13% | 77% | – | – | – | 22% | – | 93% | 83% | 97% | 96% | 100% | -2%
O=S(=O)(NCCCCN1CCN(c2noc3ccccc23)CC1)c1cccc2ccccc12 [Compound 13, N-(4-(4-(1,2-Benzoxazol-3-yl)piperazin-1-yl)butyl)naphthalene-1-sulphonamide] | 87% | 102% | -1% | 34% | 2% | 100% | 1% | 56% | 1% | 95% | 96% | 100% | 99% | 100% | –
O=S(=O)(NCCCCN1CCN(c2noc3ccccc23)CC1)c1ccc2ccccc2c1 [Compound 14, N-(4-(4-(1,2-Benzoxazol-3-yl)piperazin-1-yl)butyl)naphthalene-2-sulphonamide] | 40% | 102% | -6% | 51% | 1% | 100% | 1% | 69% | -1% | 85% | 99% | 99% | 99% | 100% | –
O=S(=O)(NCCCCN1CCC(c2noc3cc(F)ccc23)CC1)c1ccc2ccccc2c1 [Compound 18, N-[4-[4-(6-Fluoro-1,2-benzoxazol-3-yl)piperidin-1-yl]butyl]naphthalene-2-sulphonamide] | – | – | 6% | 73% | -1% | 102% | 1% | 87% | -1% | 89% | 100% | 98% | 98% | 100% | –
O=S(=O)(NCCCCN1CCN(c2noc3ccccc23)CC1)c1ccc2cc(Cl)ccc2c1 [Compound 79, N-[4-[4-(1,2-Benzoxazol-3-yl)piperazin-1-yl]butyl]-6-chloro-naphthalene-2-sulphonamide] | 37% | 88% | 12% | 72% | -2% | 97% | 1% | 76% | -2% | 97% | 97% | 97% | 99% | 91% | –
O=S(=O)(NCCCCN1CCN(c2noc3ccccc23)CC1)c1c[nH]c2ncccc12 [Compound 89, N-[4-[4-(1,2-Benzoxazol-3-yl)piperazin-1-yl]butyl]-1H-pyrrolo[2,3-b]pyridine-3-sulphonamide] | −1% | 98% | 22% | 34% | -2% | 94% | 0% | 83% | -2% | 91% | 94% | 98% | 89% | 99% | –
O=S(=O)(NCCCN1CCC(c2noc3cc(F)ccc23)CC1)c1ccc2cc(Cl)ccc2c1 [Compound 98, 6-Chloro-N-[3-[4-(6-fluoro-1,2-benzoxazol-3-yl)piperidin-1-yl]propyl]naphthalene-2-sulphonamide] | – | – | 16% | 91% | -2% | 97% | -2% | 79% | -2% | 92% | 98% | 98% | 101% | 102% | –
Cc1c(S(=O)(=O)NCCCCN2CCC(c3noc4cc(F)ccc34)CC2)sc2ccc(F)cc12 [Compound 101, 5-Fluoro-N-[4-[4-(6-fluoro-1,2-benzoxazol-3-yl)piperidin-1-yl]butyl]-3-methylbenzothiophene-2-sulphonamide] | 70% | 99% | 14% | 80% | -1% | 100% | -2% | 103% | -2% | 101% | 98% | 98% | 99% | 100% | –
O=S(=O)(NCCCCN1CCN(c2noc3ccccc23)CC1)c1ccc(-c2ccccc2)cc1 [Compound 283, N-[4-[4-(1,2-Benzoxazol-3-yl)piperazin-1-yl]butyl]-4-phenylbenzenesulphonamide] | 34% | 92% | -4% | 80% | 0% | 99% | 0% | 64% | -2% | 93% | 96% | 99% | 99% | 103% | –
O=S(=O)(NCCCN1CCC(c2noc3cc(F)ccc23)CC1)c1ccc(F)c(Cl)c1 [Compound 331, 3-Chloro-4-fluoro-N-[3-[4-(6-fluoro-1,2-benzoxazol-3-yl)piperidin-1-yl]propyl]benzenesulphonamide] | – | – | 10% | 82% | -1% | 98% | -1% | 98% | -2% | 102% | 97% | 99% | 100% | 102% | –
